Laboratory results: PMC6274284 (Molecules, 2016)

Assays:
[1] = molecular target: T1, hGRX1 (Homo sapiens, UniProt P35754, C83S); type: binding
[2] = molecular target: T1, hGRX1; type: binding; remark: listed apart in the source
[3] = molecular target: T1, hGRX1; assay: biochemical; type: binding
[4] = system: hGRX

T1 sequence (P35754 whole entry C83S, looked up): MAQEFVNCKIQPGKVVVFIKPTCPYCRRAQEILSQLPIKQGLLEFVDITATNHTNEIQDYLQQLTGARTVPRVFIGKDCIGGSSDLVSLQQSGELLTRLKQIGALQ

Nc1ccc(CN2CCOCC2)cc1 [RK428]
MaxRel.STD hGRX1 [1]: 0.6%

O=C(O)c1ccc(-c2cnco2)cc1 [RK036]
MaxRel.STD hGRX1 [1]: 2.1%

COCc1cc(=O)oc2cc(O)c(Cl)cc12 [RK450]
MaxRel.STD hGRX1 [1]: 37.1%

COCc1cc(=O)oc2cc(N)ccc12 [RK411]
MaxRel.STD hGRX1 [1]: 13.7%

Nc1ccccc1N1CCNCC1 [RK155]
trNOE binding result, hGRX1 [2]: did not bind

Cn1nc(C(=O)O)cc1-c1ccccc1 [RK246]
MaxRel.STD hGRX1 [1]: 0.6%
Kd [3]: 5.22 ± 1.16 mM

COC(=O)c1cccc2cc[nH]c12 [RK028]
MaxRel.STD hGRX1 [1]: 11.2%

C=CC(=O)NCc1ccn(-c2ccc(C(=O)OC)cc2)c1 [compound 5, Methyl 4-(3-(Acrylamidomethyl)-1H-pyrrol-1-yl)benzoate]
Enhancement of rate of reaction over naked acrylamide, hGRX [4]: about 35 fold

O=C(O)c1ccc(-n2cccc2)cc1 [RK207]
MaxRel.STD hGRX1 [1]: 0.5%
Kd [3]: 2.45 ± 0.52 mM

C=CC(N)=O [acrylamide, reference compound]
Reaction half life, hGRX ([4]; human): about 20 h

OCc1cc(-c2cccs2)[nH]n1 [RK126]
MaxRel.STD hGRX1 [1]: 23.4%
